This is an account of results in patent publication US4699909A, “Benzotriazolyl-4,5-dihydro-3(2H)-pyridazinones” (Dr. Karl Thomae GmbH, priority 1981, dated 1987).

One series relates to thrombocyte aggregation. Description: Thrombocyte aggregation according to Born and Cross (collagen-induced, platelet-rich plasma). To be noted: platelet-rich plasma from healthy human test subjects; aggregation initiated by collagen. In kind it is cell-based. On the procedure: Determination of the thrombocyte aggregation according to Born and Cross [J. Physiol. 170, 397 (1964)]
The thrombocyte aggregation was determined in platelet-rich plasma from healthy human test subjects. The course of decrease in optical density after the administration of standard commercial collagen (made by the Sigma Co., St. Louis, Mo.) containing 1 mg of collagen fibrils per ml was measured photometrically and recorded. The rate of aggregation (Vmax) was deduced from the angle of inclination of the density curve. The point on the curve where there was most light transmittance was used to calculate the optical density (O.D.). To initiate maximum aggregation, about 0.01 ml of the collagen solution was added to 1 ml of platelet-rich plasma.

The test system of another series is anesthetized cat. Nature of the series: Hypotensive and positive inotropic activity in the anesthetized cat. The conditions noted are these: average; for Change in blood pressure (first value of the printed pair) / Change in blood pressure (second value of the printed pair): arterial pressure, aorta abdominalis; for Change in blood pressure (first value of the printed pair): first number before the slash; for Change in blood pressure (second value of the printed pair): second number after the slash; for Increase in dp/dt: left ventricle pressure, dp/dtmax. In kind it is in vivo. On the procedure:
Determination of hypotensive and positive inotropic activity in the anesthetized cat
The tests were carried out on cats which had been anesthetized with sodium pentobarbital (40 mg/kg i.p.). The animals breathed spontaneously. The arterial blood pressure was measured in the aorta abdominalis using a Statham pressure transducer (P 23 Dc). To determine the positive inotropic effect, the pressure in the left ventricle of the heart was measured using a catheter-tip manometer (Milliar PC-350 A). From this, the contractility parameter (dp/dtmax was obtained by means of an analog differentiator.
The test compounds were injected into a vena femoralis. Physiological saline solution or Polydiol 200 was used as the solvent. Each compound was tested on at least 3 cats in a dosage of 0.1 or 2.0 mg/kg i.v. The duration of activity of the test compounds was at least 45 minutes in each case.

The next series can be described thus: Acute toxicity. The conditions noted are these: in vivo, po; peroral, mouse. On the procedure: In therapeutic doses the test substances are non-toxic. For example, compound B has a peroral LD50 of >50 mg/kg in the mouse.

pEC50: −log10 of the molar value.

In the series on thrombocyte aggregation, `COc1ccc(C(=O)n2nnc3cc(C4=NNC(=O)CC4C)ccc32)cc1` (stereo not shown) [A, 5-Methyl-6-(1'-p-methoxybenzoyl-benzotriazol-5'-yl)-4,5-dihydro-3(2H)-pyridazinone] showed a pEC50 of 6.57. In the series with anesthetized cat (0.1 mg/kg i.v.), the “Change in blood pressure (first value of the printed pair)” value was -16 mm Hg, the “Change in blood pressure (second value of the printed pair)” value was -16 mm Hg and the Increase in dp/dt entry is “+105%”.
Regarding `CC1CC(=O)NN=C1c1ccc2c(c1)nnn2C(=O)C1CCCCC1` (stereo not shown) [B, 5-Methyl-6-(1'-cyclohexanoyl-benzotriazol-5'-yl)-4,5-dihydro-3(2H)-pyridazinone], the median lethal dose (LD50) in “Acute toxicity” is > 50 mg/kg. In the series with thrombocyte aggregation, this compound had a pEC50 of 6.55. Also, in the series on anesthetized cat (2.0 mg/kg i.v.), the “Change in blood pressure (first value of the printed pair)” value is given as -60 mm Hg, the “Change in blood pressure (second value of the printed pair)” value is -37 mm Hg and the Increase in dp/dt result is on record as “+154%”.
In turn, `CC1CC(=O)NN=C1c1ccc2c(c1)nnn2C(C)C` (stereo not shown) [C, 5-Methyl-6-(1'-isopropyl-benzotriazol-5'-yl)-4,5-dihydro-3(2H)-pyridazinone] gave a pEC50 with thrombocyte aggregation of 7.48. Also, in the series on anesthetized cat (0.1 mg/kg i.v.), the “Change in blood pressure (first value of the printed pair)” value is on record as -27 mm Hg, the “Change in blood pressure (second value of the printed pair)” value is reported as -33 mm Hg and the Increase in dp/dt result is “+116%”.
As for `COc1ccc(Cn2nnc3cc(C4=NNC(=O)CC4C)ccc32)cc1` (stereo not shown) [Compound E, 5-Methyl-6-(1'-p-methoxybenzyl-benzotriazol-5'-yl)-4,5-dihydro-3(2H)-pyridazinone], in the series with anesthetized cat (0.1 mg/kg i.v.), the “Change in blood pressure (first value of the printed pair)” value was -48 mm Hg, the “Change in blood pressure (second value of the printed pair)” value was -48 mm Hg and the Increase in dp/dt entry is on record as “+167%”.
In turn, `CCn1nnc2cc(C3=NNC(=O)CC3C)ccc21` (stereo not shown) [D, 5-Methyl-6-(1'-ethyl-benzotriazol-5'-yl)-4,5-dihydro-3(2H)-pyridazinone] gave a pEC50 in the series on thrombocyte aggregation of 7.39. Besides, in the series on anesthetized cat (0.1 mg/kg i.v.), the “Change in blood pressure (first value of the printed pair)” value is reported as -30 mm Hg, the “Change in blood pressure (second value of the printed pair)” value is on record as -32 mm Hg and the Increase in dp/dt entry is “+125%”.
In the case of `CC1CC(=O)NN=C1c1ccc2c(c1)nnn2CCN(C)C` (stereo not shown) [F, 5-Methyl-6-[1'-(2-dimethylaminoethyl)-benzotriazol-5'-yl]-4,5-dihydro-3(2H)-pyridazinone], the pEC50 in the series with thrombocyte aggregation is 6.52.
The compound `CC1CC(=O)NN=C1c1ccc2c(c1)nnn2C` (stereo not shown) [G, 5-Methyl-6-(1'-methyl-benzotriazol-5'-yl)-4,5-dihydro-3(2H)-pyridazinone] had a negative-log EC50 (pEC50) in the series on thrombocyte aggregation of 7.29. Also, in the series with anesthetized cat (0.1 mg/kg i.v.), the “Change in blood pressure (first value of the printed pair)” value is given as -33 mm Hg, the “Change in blood pressure (second value of the printed pair)” value is -38 mm Hg and the Increase in dp/dt result is on record as “+168%”.

For orientation: pEC50 means the EC50 on a negative log10 scale, so that one unit is a factor of ten. Read a low pEC50 as a large EC50. By LD50 is commonly meant the dose at which mortality reaches 50%. Low readings indicate greater toxicity, high ones lower toxicity.
